{
  "source": "patent US7001905B2",
  "about": "“Substituted diarylamines as MEK inhibitors” (Warner-Lambert Company, priority 2000, dated 2006)",
  "biological_target": "T1, MEK (Homo sapiens, UniProt Q02750)",
  "T1 construct": "no tag is given for the 2D mutant",
  "T1 sequence (Q02750 whole entry S218D/S222D, form open, the tested form may be a part)": "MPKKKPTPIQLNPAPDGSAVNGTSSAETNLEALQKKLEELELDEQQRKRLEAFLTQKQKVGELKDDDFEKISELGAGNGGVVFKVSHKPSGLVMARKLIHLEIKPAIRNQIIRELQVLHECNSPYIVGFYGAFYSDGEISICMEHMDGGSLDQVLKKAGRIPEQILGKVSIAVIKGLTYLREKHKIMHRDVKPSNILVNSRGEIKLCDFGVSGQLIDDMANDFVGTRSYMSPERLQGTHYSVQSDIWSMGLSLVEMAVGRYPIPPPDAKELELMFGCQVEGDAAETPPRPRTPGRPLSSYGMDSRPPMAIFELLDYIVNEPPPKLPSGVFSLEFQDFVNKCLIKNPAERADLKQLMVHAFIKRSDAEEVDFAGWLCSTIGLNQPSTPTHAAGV",
  "test": "in vitro MEK assay",
  "type": "biochemical",
  "description": "For evaluation of direct MEK activity, 10 μg GST-MEK, is incubated in the presence of absence of test compound with 5 μg of a glutathione S-transferase fusion protein containing p44MAP kinase with a lysine to alanine mutation at position 71 (GST-MAPK-KA). This mutation eliminates kinase activity of MAPK, so only kinase activity attributed to the added MEK remains. Incubations are 15 minutes at 30° C. in a final volume of 50 μL containing 50 mM Tris (pH 7.5), […], 2, μM EGTA, and 10 μM [γ-^32P]ATP. The reaction is stopped by addition of Laemmli SDS sample buffer. Phosphorylated GST-MAPK-KA is resolved by electrophoresis on a 10% polyacrylamide gel. Radioactivity incorporated into GST-MAPK-KA is determined by autoradiography, and subsequent scintillation counting of excised bands.\nAlternatively, an artificially activated MEK containing serine to glutamate mutations at positions 218 and 222 (GST-MEK-2E) is used. When these two sites are phosphorylated, MEK activity is increased. Phosphorylation of these sites can be mimicked by mutation of the serine residues to glutamate. For this assay, 5 μg GST-MEK-2E is incubated with 5 μg GST-MAPK-KA for 15 minutes at 30° C. in the same reaction buffer as described above. Reactions are terminated and analyzed as above.",
  "data": [
    {"smiles": "Cc1cc(I)ccc1Nc1c(C(=O)O)cc(C(=O)NCc2ccncc2)c(F)c1F", "note": "[Example 80, 4,5-Difluoro-6-(4-iodo-2-methyl-phenylamino)-N-pyridin4-ylmethyl-isophthalamic acid]", "values": [
      {"measurement": "IC50", "value": 1700, "unit": "nM"},
      {"measurement": "in vitro MEK assay: % inhibition @ 1 μM", "value": 71, "unit": "%"}
    ]},
    {"smiles": "Cc1cc(I)ccc1N1COC(=O)c2cc(C(=O)NCC3(O)CCCCC3)c(F)c(F)c21", "note": "[Example 13, 7,8-Difluoro-1-(4-iodo-2-methyl-phenyl)-4-oxo-1,4-dihydro-2H-3,1-benzoxazine-6-carboxylic acid (1-hydroxy-cyclohexylmethyl)-amide]", "values": [
      {"measurement": "in vitro MEK assay: % inhibition @ 1 μM", "value": 23, "unit": "%"}
    ]},
    {"smiles": "Cc1cc(I)ccc1N1COC(=O)c2cc(C(=O)NCCCn3ccnc3)c(F)c(F)c21", "note": "[Example 52, 7,8-Difluoro-1-(4-iodo-2-methyl-phenyl)-4-oxo-1,4-dihydro-2H-3,1-benzoxazine-6-carboxylic acid (3-imidazol-1-yl-propyl)amide]", "values": [
      {"measurement": "in vitro MEK assay: % inhibition @ 1 μM", "value": 35, "unit": "%"}
    ]},
    {"smiles": "Cc1cc(I)ccc1Nc1c(C(=O)O)cc(C(=O)NCCCN2CCOCC2)c(F)c1F", "note": "[Example 91, 4,5-Difluoro-6-(4-iodo-2-methyl-phenylamino)-N-(3-morpholin4-yl-propyl)-isophthalamic acid]", "values": [
      {"measurement": "in vitro MEK assay: % inhibition @ 1 μM", "value": 58, "unit": "%"}
    ]},
    {"smiles": "Cc1cc(I)ccc1N1COC(=O)c2cc(C(=O)N3CCSC3)c(F)c(F)c21", "note": "[Example 58, 7,8-Difluoro-1-(4-iodo-2-methyl-phenyl)-6-(thiazolidine-3-carbonyl)-1,2-dihydro-3,1-benzoxzin-4-one]", "values": [
      {"measurement": "in vitro MEK assay: % inhibition @ 1 μM", "value": 76, "unit": "%"}
    ]},
    {"smiles": "Cc1cc(I)ccc1Nc1c(C(=O)O)cc(C(=O)N2CCSC2)c(F)c1F", "note": "[Example 98, 3,4-Difluoro-2-(4-iodo-2-methyl-phenylamino)-5-(1-thiazolidin-3-yl-methanoyl)-benzoic acid]", "values": [
      {"measurement": "IC50", "value": 87, "unit": "nM"},
      {"measurement": "in vitro MEK assay: % inhibition @ 1 μM", "value": 86, "unit": "%"}
    ]},
    {"smiles": "Cc1cc(I)ccc1N1COC(=O)c2cc(C(=O)N3CCC(N4CCCC4)CC3)c(F)c(F)c21", "note": "[Example 41]", "values": [
      {"measurement": "in vitro MEK assay: % inhibition @ 1 μM", "value": 7, "unit": "%"}
    ]},
    {"smiles": "Cc1cc(I)ccc1N1COC(=O)c2cc(C(=O)N(C)CCO)c(F)c(F)c21", "note": "[Example 20, 7,8-Difluoro-1-(4-iodo-2-methyl-phenyl)-4-oxo-1,4-dihydro-2H-3,1-benzoxazine-6-carboxylic acid (2-hydroxy-ethyl)-methyl-amide]", "values": [
      {"measurement": "in vitro MEK assay: % inhibition @ 1 μM", "value": 41, "unit": "%"}
    ]},
    {"smiles": "Cc1cc(I)ccc1N1COC(=O)c2cc(C(=O)N3CCNCC3)c(F)c(F)c21", "note": "[Example 56, 7,8-Difluoro-1-(4-iodo-2-methyl-phenyl)-6-(piperazine-1-carbonyl)-1,2-dihydro-3,1-benzoxazin-4-one]", "values": [
      {"measurement": "in vitro MEK assay: % inhibition @ 1 μM", "value": 1, "unit": "%"}
    ]},
    {"smiles": "Cc1cc(I)ccc1Nc1c(C(=O)O)cc(C(=O)N2CCCC(O)C2)c(F)c1F", "note": "(stereo not drawn) [Example 101, 3,4-Difluoro-5-[1-(3-hydroxy-piperidin-1-yl)-methanoyl]-2-(4-iodo-2-methyl-phenylamino)-benzoic acid]", "values": [
      {"measurement": "in vitro MEK assay: % inhibition @ 1 μM", "value": 75, "unit": "%"}
    ]},
    {"smiles": "Cc1cc(I)ccc1Nc1c(C(=O)O)cc(C(=O)N2CCC(CCO)CC2)c(F)c1F", "note": "[Example 83, 3,4-Difluoro-5-{1-[4-(2-hydroxy-ethyl)-piperidin-1-yl]-methanoyl}-2-(4-iodo-2-methyl-phenylamino)-benzoic acid]", "values": [
      {"measurement": "IC50", "value": 150, "unit": "nM"},
      {"measurement": "in vitro MEK assay: % inhibition @ 1 μM", "value": 90, "unit": "%"}
    ]},
    {"smiles": "Cc1cc(I)ccc1N1COC(=O)c2cc(C(=O)N3CCC(O)C3)c(F)c(F)c21", "note": "(stereo not drawn) [Example 40, 7,8-Difluoro-6-(3-hydroxy-pyrrolidine-1-carbonyl)-1-(4-iodo-2-methyl-phenyl)-1,2-dihydro-3,1-benzoxazin-4-one]", "values": [
      {"measurement": "in vitro MEK assay: % inhibition @ 1 μM", "value": 42, "unit": "%"}
    ]},
    {"smiles": "CCN1CCN(C(=O)c2cc3c(c(F)c2F)N(c2ccc(I)cc2C)COC3=O)CC1", "note": "[Example 54, 6-(4-Ethyl-piperazine-1-carbonyl)-7,8-difluoro-1-(4-iodo-2-methyl-phenyl)-1,2-dihydro-3,1-benzoxazin-4-one]", "values": [
      {"measurement": "in vitro MEK assay: % inhibition @ 1 μM", "value": 56, "unit": "%"}
    ]},
    {"smiles": "Cc1cc(I)ccc1N1COC(=O)c2cc(C(=O)N3CC[C@@H](O)C3)c(F)c(F)c21", "note": "[Example 8, 7,8-Difluoro-6-((R)-3-hydroxy-pyrrolidine-1-carbonyl)-1-(4-iodo-2-methyl-phenyl)-1,2-dihydro-3,1-benzoxazin-4-one]", "values": [
      {"measurement": "in vitro MEK assay: % inhibition @ 1 μM", "value": 34, "unit": "%"}
    ]},
    {"smiles": "CCOc1ccc2nc(NC(=O)c3cc4c(c(F)c3F)N(c3ccc(I)cc3C)COC4=O)sc2c1", "note": "[Example 28, 7,8-Difluoro-1-(4-iodo-2-methyl-phenyl)-4-oxo-1,4-dihydro-2H-3,1-benzoxazine-6-carboxylic acid (6-ethoxy-benzothiazol-2-yl)-amide]", "values": [
      {"measurement": "in vitro MEK assay: % inhibition @ 1 μM", "value": 9, "unit": "%"}
    ]},
    {"smiles": "Cc1cc(I)ccc1N1COC(=O)c2cc(C(=O)N(C)CCc3c[nH]c4ccccc34)c(F)c(F)c21", "note": "[Example 55, 7,8-Difluoro-1-(4-iodo-2-methyl-phenyl)-4-oxo-1,4-dihydro-2H-3,1-benzoxazine-6-carboxylic acid [2-(1H-indol-3-yl)ethyl]-methyl-amide]", "values": [
      {"measurement": "in vitro MEK assay: % inhibition @ 1 μM", "value": 41, "unit": "%"}
    ]},
    {"smiles": "COc1ccc(N(C)C(=O)c2cc(C(=O)O)c(Nc3ccc(I)cc3C)c(F)c2F)cc1", "note": "[Example 94, 4,5-Difluoro-6-(4-iodo-2-methyl-phenylamino)-N-(4-methoxy-phenyl)-N-methyl-isophthalamic acid]", "values": [
      {"measurement": "in vitro MEK assay: % inhibition @ 1 μM", "value": 92, "unit": "%"}
    ]},
    {"smiles": "Cc1cc(I)ccc1Nc1c(C(=O)O)cc(C(=O)N2CCSCC2)c(F)c1F", "note": "[Example 99]", "values": [
      {"measurement": "IC50", "value": 150, "unit": "nM"},
      {"measurement": "in vitro MEK assay: % inhibition @ 1 μM", "value": 82, "unit": "%"}
    ]},
    {"smiles": "CCOC(=O)c1c[nH]nc1NC(=O)c1cc2c(c(F)c1F)N(c1ccc(I)cc1C)COC2=O", "note": "[Example 34, 3-{[7,8-Difluoro-1-(4-iodo-2-methyl-phenyl)-4-oxo-1,4-dihydro-2H-3,1-benzoxazine-6-carbonyl]-amino}-1H-pyrazole-4-carboxylic acid ethyl ester]", "values": [
      {"measurement": "in vitro MEK assay: % inhibition @ 1 μM", "value": 72, "unit": "%"}
    ]},
    {"smiles": "Cc1cc(I)ccc1N1COC(=O)c2cc(C(=O)N3CCC(O)CC3)c(F)c(F)c21", "note": "[Example 43, 7,8-Difluoro-6-(4-hydroxy-piperidine-1-carbonyl)1-(4-iodo-2-methyl-phenyl)-1,2-dihydro-3,1-benzoxazin-4-one]", "values": [
      {"measurement": "in vitro MEK assay: % inhibition @ 1 μM", "value": 52, "unit": "%"}
    ]},
    {"smiles": "Cc1cc(I)ccc1Nc1c(C(=O)O)cc(C(=O)Nc2ccc(N(C)C)cc2)c(F)c1F", "note": "[Example 92, N-(4-Dimethylamino-phenyl)-4,5-difluoro-6-(iodo-methyl-phenylamino)-isophthalamic acid]", "values": [
      {"measurement": "in vitro MEK assay: % inhibition @ 1 μM", "value": 80, "unit": "%"}
    ]},
    {"smiles": "COc1ccc2[nH]cc(CCNC(=O)c3cc4c(c(F)c3F)N(c3ccc(I)cc3C)COC4=O)c2c1", "note": "[Example 47, 7,8-Difluoro-1-(4-iodo-2-methyl-2-phenyl)-4-oxo-1,4-dihydro-2H-3,1-benzoxazine-6-carboxylic acid [2-(5-methoxy-1H-indol-3-yl)ethyl]-amide]", "values": [
      {"measurement": "in vitro MEK assay: % inhibition @ 1 μM", "value": 0, "unit": "%"}
    ]},
    {"smiles": "Cc1cc(I)ccc1Nc1c(C(=O)O)cc(C(=O)N2CCC(O)CC2)c(F)c1F", "note": "[Example 81, 3,4-Difluoro-5-[1-(4-hydroxy-piperidin-1-yl)-methanoyl]-2-(4-iodo-2-methyl-phenylamino)-benzoic acid]", "values": [
      {"measurement": "IC50", "value": 1800, "unit": "nM"},
      {"measurement": "in vitro MEK assay: % inhibition @ 1 μM", "value": 86, "unit": "%"}
    ]},
    {"smiles": "Cc1cc(I)ccc1Nc1c(C(=O)O)cc(C(=O)N2CCC(O)C2)c(F)c1F", "note": "(stereo not drawn) [Example 77, 3,4-Difluoro-5-[1-(3-hydroxy-pyrrolidin-1-yl)-methanoyl]-2-(4-iodo-2-methyl-phenylamino)-benzoic acid]", "values": [
      {"measurement": "IC50", "value": 880, "unit": "nM"},
      {"measurement": "in vitro MEK assay: % inhibition @ 1 μM", "value": 83, "unit": "%"}
    ]},
    {"smiles": "Cc1cc(I)ccc1N1COC(=O)c2cc(C(=O)Nc3nc4c(C)cccc4s3)c(F)c(F)c21", "note": "[Example 23, 7,8-Difluoro-1-(4-iodo-2-methyl-phenyl)-4-oxo-1,4-dihydro-2H-3,1-benzoxazine-6-carboxylic acid (4-methyl-benzothiazol-2-yl)-amide]", "values": [
      {"measurement": "in vitro MEK assay: % inhibition @ 1 μM", "value": 26, "unit": "%"}
    ]},
    {"smiles": "Cc1cc(I)ccc1Nc1c(C(=O)O)cc(C(=O)N2CCCCC2CO)c(F)c1F", "note": "(stereo not drawn) [Example 70, 3,4-Difluoro-5-[1-(2-hydroxymethyl-piperidin-1-yl)-methanoyl]-2-(4-iodo-2-methyl-phenylamino)-benzoic acid]", "values": [
      {"measurement": "in vitro MEK assay: % inhibition @ 1 μM", "value": 49, "unit": "%"}
    ]},
    {"smiles": "Cc1cc(I)ccc1Nc1c(C(=O)O)cc(C(=O)NCCCN2CCCC2=O)c(F)c1F", "note": "[Example 62, 4,5-Difluoro-6-(4-iodo-2-methyl-phenylamino)-N-[3-(2-oxo-pyrrolidin-1-yl)-propyl]-isophthalamic acid]", "values": [
      {"measurement": "in vitro MEK assay: % inhibition @ 1 μM", "value": 78, "unit": "%"}
    ]},
    {"smiles": "Cc1cc(I)ccc1Nc1c(C(=O)O)cc(C(=O)Nc2ccc3c(c2)OCCO3)c(F)c1F", "note": "[Example 72, N-(2,3-Dihydro-benzo[1,4]dioxin-6-yl)4,5-difluoro-6-(4-iodo-2-methyl-phenylamino)-isophthalamic acid]", "values": [
      {"measurement": "in vitro MEK assay: % inhibition @ 1 μM", "value": 65, "unit": "%"}
    ]},
    {"smiles": "Cc1cc(I)ccc1N1COC(=O)c2cc(C(=O)NCCN3CCOCC3)c(F)c(F)c21", "note": "[Example 42, 7,8-Difluoro-1-(4-iodo-2-methyl-phenyl)-4-oxo-1,4-dihydro-2H-3,1-benzoxazine-6-carboxylic acid (2-morpholin-4yl-ethyl)-amide]", "values": [
      {"measurement": "in vitro MEK assay: % inhibition @ 1 μM", "value": 15, "unit": "%"}
    ]},
    {"smiles": "Cc1cc(I)ccc1N1COC(=O)c2cc(C(=O)NCCN3CCCCC3)c(F)c(F)c21", "note": "[Example 10, 7,8-Difluoro-1-(4-iodo-2-methyl-phenyl)-4-oxo-1,4-dihydro-2H-3,1-benzoxazine-6-carboxylic acid (2-piperidin-1-yl-ethyl)-amide]", "values": [
      {"measurement": "in vitro MEK assay: % inhibition @ 1 μM", "value": 44, "unit": "%"}
    ]}
  ]
}
